# Source: paper PMC8171112 (Bioorganic & medicinal chemistry, 2021)
# pEC50, pIC50: −log10 of the molar value.
# Legend:
# [1] = target: catalytic domain of TET2 (TET2CD) (Homo sapiens, UniProt Q6N021); test: ELISA of 5hmC for TET2 activity, cell free; type: biochemical; conditions: for potency relative to NOG: cell free ELISA, more potent than NOG (Figure 1)
# TET2 [2] = conditions: read-out: IC50 TET2; Figure 3 insert; cited from earlier work
# [3] = tested on: 16 other α-KG/Fe(II) dependent enzymes; conditions: cited from earlier work
# TET2CD = TET2CD (Homo sapiens, UniProt Q6N021); test: LC-MS/MS analysis to probe TET2CD modification; conditions: TET2CD 10 μM, 2a 100 μM, 2 h, trypsin and chymotrypsin digestion
# TET1 [4] = conditions: 10 mM, 0.1 mM α-KG; cited from earlier work
# TET2 [5] = conditions: 10 mM, 0.1 mM α-KG; cited from earlier work
# [6] = tested on: TET enzyme (5hmC/5mC) in THP1 cells; type: cell-based; conditions: prodrug esters, three concentrations, 12 h
# TET1 [7] = conditions: read-out: IC50 TET1; cited from earlier work
# wild type (WT)-TET2 = conditions: cited from earlier work
structure (smiles),measurement,setting,value
"C=C(CC(O)C(=O)O)C(=O)O (centres unmarked) [2a, 2-Hydroxy-4-methylenepentanedioic acid]",potency relative to NOG,[1],approximately 2 fold
same,pIC50,TET2 [2],5.03
same,inhibition of 16 other α-KG/Fe(II) dependent enzymes,[3],does not inhibit
same,covalent modification of +160 Da of TET2CD peptides,TET2CD,did not observed covalent modification of +160 Da of any peptide
"O=C(O)CCC(=O)C(=O)O [α-KG, α-ketoglutarate, reference compound]",pEC50,"[1]; read-out: EC50, TET2CD dioxygenase activity response to α-KG, ELISA, Figure 5A",5.46
O=C(O)CC[C@H](O)C(=O)O [S-2-HG],inhibition of TET1 activity,TET1 [4],inhibiting most of TET1 and TET2 activity
same,inhibition of TET2 activity,TET2 [5],inhibiting most of TET1 and TET2 activity
COC(=O)C(=O)CC(C)C(=O)OC (centres unmarked) [21a],"TET inhibition in THP1 cells, dot blot",[6],no inhibition
"C=C(CC(Cl)C(=O)OC)C(=O)OC (centres unmarked) [compound 9, Dimethyl 2-chloro-4-methylenepentanedioate]","TET inhibition in THP1 cells, dot blot",[6],good activity consistent with 1a
"COC(=O)CCC(=O)C(=O)OC [DMKG, dimethyl-2-ketoglutarate, reference compound]","TET inhibition in THP1 cells, dot blot",[6],no inhibition
"C=C(C[C@H](O)C(=O)O)C(=O)O [16S, (S)-2-Hydroxy-4-methylenepentanedioic acid]",potency relative to NOG,[1],approximately 2 fold
"C=C(C[C@@H](O)C(=O)O)C(=O)O [16R, (R)-2-Hydroxy-4-methylenepentanedioic acid]",potency relative to NOG,[1],approximately 2 fold
Nc1nc(=O)n(-c2cccc(-c3ccccc3)c2)cc1Cl [Bobcat 339],pIC50,TET1 [7],4.48
CC(C)CC(NC(=O)C(=O)O)C(=O)O (centres unmarked) [NOG-5],effect on wild type (WT)-TET2,wild type (WT)-TET2,no effect
